For orientation: IC50 means the concentration that gives 50% inhibition.

The structures appear in SMILES notation.

The source of these data is patent publication US20230002352A1, “SULFONAMIDE DERIVATIVES AS CTPS1 INHIBITORS” (Step Pharma S.A.S., priority 2019, published 2023).

This experiment concerns the target T1, human CTPS1 (Homo sapiens, UniProt P17812).
T1 construct: purchased Proteros biostructures GmbH
T1 sequence (P17812 1-591): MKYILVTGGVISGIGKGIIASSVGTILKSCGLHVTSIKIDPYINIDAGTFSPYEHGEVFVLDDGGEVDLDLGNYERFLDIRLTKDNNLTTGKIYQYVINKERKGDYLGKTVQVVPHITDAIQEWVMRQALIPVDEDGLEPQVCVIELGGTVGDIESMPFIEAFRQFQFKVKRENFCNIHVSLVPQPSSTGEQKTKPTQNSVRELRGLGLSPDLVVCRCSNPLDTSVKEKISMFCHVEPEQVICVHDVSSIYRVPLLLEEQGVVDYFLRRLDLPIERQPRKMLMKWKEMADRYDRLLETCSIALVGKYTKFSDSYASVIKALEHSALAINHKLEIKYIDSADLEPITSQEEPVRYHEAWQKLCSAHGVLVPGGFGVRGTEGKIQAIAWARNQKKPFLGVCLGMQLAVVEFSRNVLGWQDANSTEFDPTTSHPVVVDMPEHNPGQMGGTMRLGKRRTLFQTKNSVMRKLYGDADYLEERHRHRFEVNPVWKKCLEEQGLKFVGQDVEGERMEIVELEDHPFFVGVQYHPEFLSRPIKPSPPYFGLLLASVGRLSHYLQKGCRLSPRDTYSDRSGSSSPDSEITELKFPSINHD
Description: Human CTPS1 enzyme inhibition (ADP-Glo Max assay). Type of experiment: biochemical. The settings on record: Table 23; ADP-Glo Max assay; read-out: CTPS1 (Human CTPS1 Enzyme Inhibition data grouped by potency range, IC50). How it is done:
Biological Example 1—Human CTPS1 Enzyme Inhibition
The enzyme inhibitory activities of compounds invented against the target of interest were determined using the ADP-Glo™ Max assay (Promega, UK). Assays for human CTPS1 were performed in 1× assay buffer containing 50 mM Tris, 10 mM MgCl2, 0.01% Tween-20, pH to 8.0 accordingly. Finally, immediately before use, L-cysteine was added to the 1× assay buffer to a final concentration of 2 mM. All reagents are from Sigma-Aldrich unless specified otherwise. Human full length active C-terminal FLAG-Hiss-tag CTPS1 (UniProtKB-P17812, CTPS[1-591]-[…]) was obtained from Proteros biostructures GmbH.
3× human CTPS1 protein was prepared in 1× assay buffer to the final working protein concentration required for the reaction. A 2 uL volume per well of 3× human CTPS1 protein was mixed with 2 uL per well of 3× test compound (compound prepared in 1× assay buffer to an appropriate final 3× compound concentration respective to the concentration response curve designed for the compounds under test) for 10 minutes at 25° C. The enzymatic reaction was then initiated by addition of a 2 uL per well volume of a pre-mixed substrate mix (UltraPure ATP from ADP-Glo™ Max kit (0.31 mM), GTP (0.034 mM), UTP (0.48 mM) and L-glutamine (0.186 mM)) and the mixture was incubated for an appropriate amount of time within the determined linear phase of the reaction at 25° C. under sealed plate conditions with constant agitation at 500 revolutions per minute (rpm). ADP-Glo™ Max reagent was added for 60 minutes (6 μL per well) and subsequently ADP-Glo™ Max development reagent was added for 60 minutes (12 uL per well) prior to signal detection in a microplate reader (EnVision® Multilabel Reader, Perkin Elmer). Following each reagent addition over the course of the assay, assay plates were pulse centrifuged for 30 seconds at 500 rpm.
In all cases, the enzyme converts ATP to ADP and the ADP-Glo™ Max reagent subsequently depletes any remaining endogenous ATP in the reaction system. The ADP-Glo™ Max detection reagent converts the ADP that has been enzymatically produced back into ATP and using ATP as a substrate together with luciferin for the enzyme luciferase, light is generated which produces a detectable luminescence. […] The percentage inhibition produced by each concentration of compound was calculated using the equation shown below: […]
Percentage inhibition was then plotted against compound concentration, and the 50% inhibitory concentration (IC50) was determined from the resultant concentration-response curve.
(In general: ADP-Glo turns the ADP formed in a reaction into a luminescent signal.)

For the molecule `CCOc1cncc(-c2ccc(NC(=O)C(F)(c3ccnc(NS(=O)(=O)C4CC4)n3)C(C)C)nc2)n1` (stereo not drawn) [Example P152], the IC50 was at most 100 nM.
The value for `CCOc1cncc(-c2ccc(NC(=O)C(c3ccnc(NS(=O)(=O)C4CC4)n3)C(C)C)c(F)c2)n1` (stereo not drawn) [Example P153] was at most 100 nM; that for `CCOc1cncc(-c2ccc(NC(=O)C(c3ccnc(NS(=O)(=O)C4CC4)n3)C(C)C)nc2)n1` (stereo not drawn) [Example P154] was at most 100 nM; that for `CCC(C(=O)Nc1ccc(-c2cncc(C3CC3)n2)cn1)c1ccnc(NS(=O)(=O)C2CC2)n1` (stereo not drawn) [Example P156] was at most 100 nM.
Turning to `CCC(C(=O)Nc1ccc(-c2cncc(OCC(F)(F)F)n2)cn1)c1ccnc(NS(=O)(=O)C2CC2)n1` (stereo not drawn) [Example P157], the concentration for half-maximal inhibition (IC50) is at most 100 nM.
The result for `CCC(C(=O)Nc1ccc(-c2cncc(C3CC3)n2)cc1F)c1ccnc(NS(=O)(=O)C2CC2)n1` (stereo not drawn) [Example P160] reads at most 100 nM.
The value for `O=C(Cc1cccc(NS(=O)(=O)C2CC2)n1)Nc1ccc(-c2cncc(Cl)c2)cc1` [Example P167] was 100 to 1000 nM; that for `N#Cc1cncc(-c2ccc(NC(=O)Cc3cccc(NS(=O)(=O)C4CC4)n3)cc2)c1` [Example P168] was 100 to 1000 nM; that for `O=C(Cc1cccc(NS(=O)(=O)C2CC2)n1)Nc1ccc(-c2cncc(F)c2)cc1` [Example P169] was 100 to 1000 nM.
The result for `COc1cncc(-c2ccc(NC(=O)Cc3cccc(NS(=O)(=O)C4CC4)n3)cc2)c1` [Example P170] reads 100 to 1000 nM; that for `O=C(Cc1cccc(NS(=O)(=O)C2CC2)n1)Nc1ccc(-c2cccnc2)cc1` [Example P171], 1000 to 10000 nM; that for `O=C(Cc1cccc(NS(=O)(=O)C2CC2)n1)Nc1ccc(-c2cncc(C(F)(F)F)n2)cc1` [Example P172], 100 to 1000 nM.
`COc1cncc(-c2ccc(NC(=O)Cc3cccc(NS(=O)(=O)C4CC4)n3)cc2)n1` [Example P173]: the IC50 was at most 100 nM.
The result for `O=C(Cc1cccc(NS(=O)(=O)C2CC2)n1)Nc1ccc(-c2cnccn2)cc1` [Example P174] reads 1000 to 10000 nM; that for `CC(C)(C(=O)Nc1ccc(-c2cccnc2)cn1)c1cccc(NS(=O)(=O)C2CC2)n1` [Example P175], 1000 to 10000 nM; that for `CC(C)(C(=O)Nc1ccc(-c2cncc(Cl)c2)cc1)c1cccc(NS(=O)(=O)C2CC2)n1` [Example P176], 1000 to 10000 nM.
On to `CC(C)(C(=O)Nc1ccc(-c2cncc(F)c2)cc1)c1cccc(NS(=O)(=O)C2CC2)n1` [Example P177], for which the IC50 fell in the range of 1000 to 10000 nM.
The value for `CCOc1cncc(-c2ccc(NC(=O)C(C)(C)c3cccc(NS(=O)(=O)C4CC4)n3)cc2)c1` [Example P178] was 1000 to 10000 nM.
The result for `CC(C)(C(=O)Nc1ccc(-c2cccnc2)cc1)c1cccc(NS(=O)(=O)C2CC2)n1` [Example P179] reads 1000 to 10000 nM; that for `CC(C)(C(=O)Nc1ccc(-c2cnccn2)cc1F)c1cccc(NS(=O)(=O)C2CC2)n1` [Example P180], 1000 to 10000 nM.
The value for `CC(C)(C(=O)Nc1ccc(-c2cncc(C(F)(F)F)n2)cc1)c1cccc(NS(=O)(=O)C2CC2)n1` [Example P181] was 1000 to 10000 nM; that for `CC(C)(C(=O)Nc1ccc(-c2cncc(Cl)n2)cc1)c1cccc(NS(=O)(=O)C2CC2)n1` [Example P182] was 100 to 1000 nM.
Consider `CCOc1cncc(-c2ccc(NC(=O)C(C)(C)c3cccc(NS(=O)(=O)C4CC4)n3)cc2)n1` [Example P183], for which the half-maximal inhibitory concentration (IC50) was 100 to 1000 nM.
The result for `COc1cncc(-c2ccc(NC(=O)C(C)(C)c3cccc(NS(=O)(=O)C4CC4)n3)cc2)n1` [Example P184] reads 100 to 1000 nM.
As for `CC(C)(C(=O)Nc1ccc(-c2cnccn2)cc1)c1cccc(NS(=O)(=O)C2CC2)n1` [Example P185], the IC50 fell in the range of 1000 to 10000 nM.
The result for `CCOc1cncc(-c2ccc(NC(=O)C3(c4cccc(NS(=O)(=O)C5CC5)n4)CCOCC3)nc2)n1` [Example P186] reads at most 100 nM.
The result for `O=C(Cc1cncc(NS(=O)(=O)C2CC2)n1)Nc1ccc(-c2cccnc2)cc1` [Example P192] reads 1000 to 10000 nM.
